Reference: the supplement of paper PMC11208160

Assay: recombinant barcode read abundance after kanamycin selection (control-corrected) (log10(CPM+1)); higher = more efficient recombination; sequences stand for … in AGTGCAGAGAAAATCGGCCAGTTTTCTCTGCCTGCAGTCCGCATGCCGT…ATTTATGCAGCGGACTGCCTTTCTCCCAAAGTGATAAACCGGACAGTATCATGGACCGGTTTTCCCGGTAATCCGTATTTGCAAGGTTGGTTTCACT; site = the 11-nt target
In short: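 A promoter, a target, a barcode and the first 104 bridge RNA bases under J23119 made up each oligo. Oligos were Gibson-cloned into a vector bearing the other 73 bp and a T7-inducible recombinase, then co-electroporated into E. coli with a donor plasmid and plated in duplicate on chloramphenicol/ampicillin LB agar (control) or chloramphenicol/ampicillin/kanamycin with 0.1 mM IPTG. Recombination efficiency is the averaged, control-corrected counts per million of recombinant-junction barcodes. Reported values are log10(CPM+1).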

| Sequence | recombinant barcode read abundance (log10) |
| --- | --- |
| GTCGCCCATTGGGTTCTAACCTGTTGCTAAT [GTCGCCCCTTA_LTGcore_AT_RTGcore_AT] (site GTCGCCCCTTA) (LTG core: AT, RTG core: AT) | 0.182 |
| GTCGCCCCTTGGGTTCTAACCTGTTGCTAGT [GTCGCCCCTTA_LTGcore_CT_RTGcore_AC] (site GTCGCCCCTTA) (LTG core: CT, RTG core: AC) | 0.644 |
| GTCGCCCCTTGGGTTCTAACCTGTTGCTATC [GTCGCCCCTTA_LTGcore_CT_RTGcore_GA] (site GTCGCCCCTTA) (LTG core: CT, RTG core: GA) | 0.434 |
| GTCGCCCTATGGGTTCTAACCTGTTGCTAAG [GTCGCCCCTTA_LTGcore_TA_RTGcore_CT] (site GTCGCCCCTTA) (LTG core: TA, RTG core: CT) | 0.0747 |
| GTCGCCCTGTGGGTTCTAACCTGTTGCTAAG [GTCGCCCCTTA_LTGcore_TG_RTGcore_CT] (site GTCGCCCCTTA) (LTG core: TG, RTG core: CT) | 0.405 |
| TAAGAATACTGGGTTCTAACCTGTTGCCTAG [TAAGAATCTAG_LTGcore_AC_RTGcore_CT] (site TAAGAATCTAG) (LTG core: AC, RTG core: CT) | 0.0833 |
| TAAGAATCCTGGGTTCTAACCTGTTGCCTGG [TAAGAATCTAG_LTGcore_CC_RTGcore_CC] (site TAAGAATCTAG) (LTG core: CC, RTG core: CC) | 0.0748 |
| TAAGAATCGTGGGTTCTAACCTGTTGCCTAG [TAAGAATCTAG_LTGcore_CG_RTGcore_CT] (site TAAGAATCTAG) (LTG core: CG, RTG core: CT) | 0.349 |
| TAAGAATCTTGGGTTCTAACCTGTTGCCTGG [TAAGAATCTAG_LTGcore_CT_RTGcore_CC] (site TAAGAATCTAG) (LTG core: CT, RTG core: CC) | 0.39 |
| TAAGAATCTTGGGTTCTAACCTGTTGCCTTG [TAAGAATCTAG_LTGcore_CT_RTGcore_CA] (site TAAGAATCTAG) (LTG core: CT, RTG core: CA) | 0.89 |
| TAAGAATGTTGGGTTCTAACCTGTTGCCTAC [TAAGAATCTAG_LTGcore_GT_RTGcore_GT] (site TAAGAATCTAG) (LTG core: GT, RTG core: GT) | 0.128 |
| TAAGAATGTTGGGTTCTAACCTGTTGCCTAG [TAAGAATCTAG_LTGcore_GT_RTGcore_CT] (site TAAGAATCTAG) (LTG core: GT, RTG core: CT) | 0.127 |
| TAAGAATTATGGGTTCTAACCTGTTGCCTTA [TAAGAATCTAG_LTGcore_TA_RTGcore_TA] (site TAAGAATCTAG) (LTG core: TA, RTG core: TA) | 0.111 |
| TAGAGGGAGTGGGTTCTAACCTGTTGCGGAG [TAGAGGGCTCC_LTGcore_AG_RTGcore_CT] (site TAGAGGGCTCC) (LTG core: AG, RTG core: CT) | 0.0663 |
| TAGAGGGAGTGGGTTCTAACCTGTTGCGGCT [TAGAGGGCTCC_LTGcore_AG_RTGcore_AG] (site TAGAGGGCTCC) (LTG core: AG, RTG core: AG) | 0.0923 |
| TAGAGGGCATGGGTTCTAACCTGTTGCGGAG [TAGAGGGCTCC_LTGcore_CA_RTGcore_CT] (site TAGAGGGCTCC) (LTG core: CA, RTG core: CT) | 2.42 |
| TAGAGGGCCTGGGTTCTAACCTGTTGCGGGG [TAGAGGGCTCC_LTGcore_CC_RTGcore_CC] (site TAGAGGGCTCC) (LTG core: CC, RTG core: CC) | 0.132 |

| Sequence | recombinant barcode read abundance (log10) |
| --- | --- |
| TAGAGGGCGTGGGTTCTAACCTGTTGCGGCG [TAGAGGGCTCC_LTGcore_CG_RTGcore_CG] (site TAGAGGGCTCC) (LTG core: CG, RTG core: CG) | 0.0165 |
| TAGAGGGCTTGGGTTCTAACCTGTTGCGGAA [TAGAGGGCTCC_LTGcore_CT_RTGcore_TT] (site TAGAGGGCTCC) (LTG core: CT, RTG core: TT) | 0.746 |
| TAGAGGGCTTGGGTTCTAACCTGTTGCGGAC [TAGAGGGCTCC_LTGcore_CT_RTGcore_GT] (site TAGAGGGCTCC) (LTG core: CT, RTG core: GT) | 1.38 |
| TAGAGGGCTTGGGTTCTAACCTGTTGCGGCT [TAGAGGGCTCC_LTGcore_CT_RTGcore_AG] (site TAGAGGGCTCC) (LTG core: CT, RTG core: AG) | 0.623 |
| TAGAGGGCTTGGGTTCTAACCTGTTGCGGTG [TAGAGGGCTCC_LTGcore_CT_RTGcore_CA] (site TAGAGGGCTCC) (LTG core: CT, RTG core: CA) | 0.438 |
| TAGAGGGGGTGGGTTCTAACCTGTTGCGGAG [TAGAGGGCTCC_LTGcore_GG_RTGcore_CT] (site TAGAGGGCTCC) (LTG core: GG, RTG core: CT) | 0.0671 |
| TAGAGGGGGTGGGTTCTAACCTGTTGCGGCC [TAGAGGGCTCC_LTGcore_GG_RTGcore_GG] (site TAGAGGGCTCC) (LTG core: GG, RTG core: GG) | 0.114 |
| TAGAGGGTCTGGGTTCTAACCTGTTGCGGGA [TAGAGGGCTCC_LTGcore_TC_RTGcore_TC] (site TAGAGGGCTCC) (LTG core: TC, RTG core: TC) | 0.0922 |
| TAGAGGGTGTGGGTTCTAACCTGTTGCGGAG [TAGAGGGCTCC_LTGcore_TG_RTGcore_CT] (site TAGAGGGCTCC) (LTG core: TG, RTG core: CT) | 0.173 |
| TAGAGGGTTTGGGTTCTAACCTGTTGCGGAA [TAGAGGGCTCC_LTGcore_TT_RTGcore_TT] (site TAGAGGGCTCC) (LTG core: TT, RTG core: TT) | 0.0961 |
| TAGAGGGTTTGGGTTCTAACCTGTTGCGGAG [TAGAGGGCTCC_LTGcore_TT_RTGcore_CT] (site TAGAGGGCTCC) (LTG core: TT, RTG core: CT) | 0.949 |
| TCGCGACAATGGGTTCTAACCTGTTGCCGAG [TCGCGACCTCG_LTGcore_AA_RTGcore_CT] (site TCGCGACCTCG) (LTG core: AA, RTG core: CT) | 0.0505 |
| TCGCGACAATGGGTTCTAACCTGTTGCCGTT [TCGCGACCTCG_LTGcore_AA_RTGcore_AA] (site TCGCGACCTCG) (LTG core: AA, RTG core: AA) | 0.176 |
| TCGCGACACTGGGTTCTAACCTGTTGCCGAG [TCGCGACCTCG_LTGcore_AC_RTGcore_CT] (site TCGCGACCTCG) (LTG core: AC, RTG core: CT) | 0.0715 |
| TCGCGACCGTGGGTTCTAACCTGTTGCCGAG [TCGCGACCTCG_LTGcore_CG_RTGcore_CT] (site TCGCGACCTCG) (LTG core: CG, RTG core: CT) | 0.392 |
| TCGCGACCTTGGGTTCTAACCTGTTGCCGAT [TCGCGACCTCG_LTGcore_CT_RTGcore_AT] (site TCGCGACCTCG) (LTG core: CT, RTG core: AT) | 0.514 |
| TCGCGACCTTGGGTTCTAACCTGTTGCCGCA [TCGCGACCTCG_LTGcore_CT_RTGcore_TG] (site TCGCGACCTCG) (LTG core: CT, RTG core: TG) | 0.072 |
